Test results from the NIST ThermoML archive (doi:10.1016/j.tca.2018.01.023).
Several values for one entry are separate records, joined by “and”; a condition that tells them apart may be missing. Identical values can stand only once. ± gives the expanded uncertainty stated by the source.

Experiment: molar heat capacity at constant pressure
Settings: 101.33 kPa, Crystal, Small sample (50 mg) DSC

[Ca+2].[O]=[Mo](=[O])([O-])[O-] [calcium molybdate(VI)]
Settings | molar heat capacity at constant pressure
596.4 K | 141.2 ± 6 J/K/mol
597 K | 142.1 ± 6 J/K/mol
597.4 K | 141.3 ± 6 J/K/mol
598 K | 142.2 ± 6 J/K/mol
598.4 K | 141.3 ± 6 J/K/mol
599 K | 142.2 ± 6 J/K/mol
599.4 K | 141.3 ± 6 J/K/mol
600 K | 141.5 ± 6 J/K/mol and 142.3 ± 6 J/K/mol
600.4 K | 141.3 ± 6 J/K/mol
601 K | 142.4 ± 6 J/K/mol
601.4 K | 141.4 ± 6 J/K/mol
602 K | 142.4 ± 6 J/K/mol
602.4 K | 141.4 ± 6 J/K/mol
603 K | 142.5 ± 6 J/K/mol
603.4 K | 141.4 ± 6 J/K/mol
604.1 K | 142.4 ± 6 J/K/mol
604.4 K | 141.4 ± 6 J/K/mol
605.1 K | 142.4 ± 6 J/K/mol
605.4 K | 141.4 ± 6 J/K/mol
606.1 K | 142.4 ± 6 J/K/mol
606.4 K | 141.5 ± 6 J/K/mol
607.1 K | 142.5 ± 6 J/K/mol
607.4 K | 141.5 ± 6 J/K/mol
608.1 K | 142.5 ± 6 J/K/mol
608.4 K | 141.5 ± 6 J/K/mol
609.1 K | 142.6 ± 6.1 J/K/mol
609.4 K | 141.5 ± 6 J/K/mol
610.1 K | 142.7 ± 6.1 J/K/mol
610.4 K | 141.5 ± 6 J/K/mol
611.1 K | 142.7 ± 6.1 J/K/mol
611.4 K | 141.5 ± 6 J/K/mol
612.1 K | 142.7 ± 6.1 J/K/mol
612.4 K | 141.5 ± 6 J/K/mol
613.1 K | 142.8 ± 6.1 J/K/mol
613.4 K | 141.6 ± 6 J/K/mol
614.1 K | 142.8 ± 6.1 J/K/mol
614.4 K | 141.6 ± 6 J/K/mol
615.1 K | 142.8 ± 6.1 J/K/mol
615.4 K | 141.6 ± 6 J/K/mol
616.1 K | 142.9 ± 6.1 J/K/mol
616.4 K | 141.6 ± 6 J/K/mol
617.1 K | 142.9 ± 6.1 J/K/mol
617.4 K | 141.6 ± 6 J/K/mol
618.1 K | 142.9 ± 6.1 J/K/mol
618.4 K | 141.6 ± 6 J/K/mol
619.1 K | 143 ± 6.1 J/K/mol
619.4 K | 141.5 ± 6 J/K/mol
620 K | 142.4 ± 6 J/K/mol
620.1 K | 143.1 ± 6.1 J/K/mol
620.4 K | 141.5 ± 6 J/K/mol
621.1 K | 143.2 ± 6.1 J/K/mol
621.4 K | 141.4 ± 6 J/K/mol
622.1 K | 143.2 ± 6.1 J/K/mol
622.4 K | 141.5 ± 6 J/K/mol
623.1 K | 143.3 ± 6.1 J/K/mol
623.4 K | 141.5 ± 6 J/K/mol
624.1 K | 143.3 ± 6.1 J/K/mol
624.4 K | 141.6 ± 6 J/K/mol
624.5 K | 143.3 ± 6.1 J/K/mol
625.4 K | 141.6 ± 6 J/K/mol
626.4 K | 141.7 ± 6 J/K/mol
627.4 K | 141.7 ± 6 J/K/mol
628.4 K | 141.7 ± 6 J/K/mol
629.4 K | 141.8 ± 6 J/K/mol
630.4 K | 141.8 ± 6 J/K/mol
631.4 K | 141.9 ± 6 J/K/mol
632.4 K | 142.1 ± 6 J/K/mol
633.4 K | 142.2 ± 6 J/K/mol
634.4 K | 142.3 ± 6 J/K/mol
635.4 K | 142.3 ± 6 J/K/mol
636.4 K | 142.4 ± 6 J/K/mol
637.4 K | 142.4 ± 6 J/K/mol
638.4 K | 142.4 ± 6 J/K/mol
639.4 K | 142.5 ± 6 J/K/mol
640 K | 143.2 ± 6.1 J/K/mol
640.4 K | 142.6 ± 6.1 J/K/mol
641.4 K | 142.7 ± 6.1 J/K/mol
642.4 K | 142.8 ± 6.1 J/K/mol
643.4 K | 142.8 ± 6.1 J/K/mol
644.4 K | 142.9 ± 6.1 J/K/mol
645.4 K | 142.9 ± 6.1 J/K/mol
646.4 K | 143 ± 6.1 J/K/mol
647.4 K | 143 ± 6.1 J/K/mol
648.4 K | 143 ± 6.1 J/K/mol
649.4 K | 143.1 ± 6.1 J/K/mol
650.4 K | 143.2 ± 6.1 J/K/mol
651.4 K | 143.2 ± 6.1 J/K/mol
652.4 K | 143.3 ± 6.1 J/K/mol
653.4 K | 143.4 ± 6.1 J/K/mol
654.4 K | 143.4 ± 6.1 J/K/mol
655.4 K | 143.5 ± 6.1 J/K/mol
656.4 K | 143.6 ± 6.1 J/K/mol
657.4 K | 143.6 ± 6.1 J/K/mol
658.4 K | 143.7 ± 6.1 J/K/mol
659.4 K | 143.8 ± 6.1 J/K/mol
660 K | 144 ± 6.1 J/K/mol
660.4 K | 143.8 ± 6.1 J/K/mol
661.4 K | 143.9 ± 6.1 J/K/mol
662.4 K | 144 ± 6.1 J/K/mol
663.4 K | 144 ± 6.1 J/K/mol
664.4 K | 144.1 ± 6.1 J/K/mol
665.4 K | 144.2 ± 6.1 J/K/mol
666.4 K | 144.2 ± 6.1 J/K/mol
667.4 K | 144.3 ± 6.1 J/K/mol
668.4 K | 144.3 ± 6.1 J/K/mol
669.4 K | 144.4 ± 6.1 J/K/mol
670.4 K | 144.4 ± 6.1 J/K/mol
671.4 K | 144.4 ± 6.1 J/K/mol
672.4 K | 144.5 ± 6.1 J/K/mol
673.4 K | 144.5 ± 6.1 J/K/mol
674.4 K | 144.5 ± 6.1 J/K/mol
675.4 K | 144.5 ± 6.1 J/K/mol
676.4 K | 144.6 ± 6.1 J/K/mol
677.4 K | 144.6 ± 6.1 J/K/mol
678.4 K | 144.7 ± 6.1 J/K/mol
679.4 K | 144.8 ± 6.1 J/K/mol
680 K | 144.7 ± 6.1 J/K/mol
680.4 K | 144.9 ± 6.1 J/K/mol
681.4 K | 144.9 ± 6.1 J/K/mol
682.4 K | 145 ± 6.2 J/K/mol
683.4 K | 145.1 ± 6.2 J/K/mol
684.4 K | 145.2 ± 6.2 J/K/mol
685.4 K | 145.3 ± 6.2 J/K/mol
686.4 K | 145.3 ± 6.2 J/K/mol
687.4 K | 145.4 ± 6.2 J/K/mol
688.4 K | 145.4 ± 6.2 J/K/mol
689.4 K | 145.5 ± 6.2 J/K/mol
690.4 K | 145.5 ± 6.2 J/K/mol
691.4 K | 145.6 ± 6.2 J/K/mol
692.4 K | 145.6 ± 6.2 J/K/mol
693.4 K | 145.7 ± 6.2 J/K/mol
694.4 K | 145.8 ± 6.2 J/K/mol
695.4 K | 145.8 ± 6.2 J/K/mol
696.4 K | 145.9 ± 6.2 J/K/mol
697.4 K | 145.9 ± 6.2 J/K/mol
698.4 K | 145.9 ± 6.2 J/K/mol
699.4 K | 145.9 ± 6.2 J/K/mol
700 K | 145.4 ± 6.2 J/K/mol
700.4 K | 145.9 ± 6.2 J/K/mol
701.4 K | 145.9 ± 6.2 J/K/mol
702.4 K | 145.9 ± 6.2 J/K/mol
703.4 K | 145.9 ± 6.2 J/K/mol
704.4 K | 145.9 ± 6.2 J/K/mol
705.4 K | 145.9 ± 6.2 J/K/mol
706.4 K | 145.8 ± 6.2 J/K/mol
707.4 K | 145.8 ± 6.2 J/K/mol
708.4 K | 145.8 ± 6.2 J/K/mol
709.4 K | 145.9 ± 6.2 J/K/mol
710.4 K | 145.9 ± 6.2 J/K/mol
711.4 K | 145.9 ± 6.2 J/K/mol
712.4 K | 146 ± 6.2 J/K/mol
713.4 K | 146 ± 6.2 J/K/mol
714.4 K | 146 ± 6.2 J/K/mol
715.4 K | 146 ± 6.2 J/K/mol
716.4 K | 146.1 ± 6.2 J/K/mol
717.4 K | 146.2 ± 6.2 J/K/mol
718.4 K | 146.2 ± 6.2 J/K/mol
719.4 K | 146.3 ± 6.2 J/K/mol
720 K | 146.1 ± 6.2 J/K/mol
720.4 K | 146.3 ± 6.2 J/K/mol
721.4 K | 146.3 ± 6.2 J/K/mol
722.4 K | 146.3 ± 6.2 J/K/mol
723.4 K | 146.4 ± 6.2 J/K/mol
724.4 K | 146.4 ± 6.2 J/K/mol
725.4 K | 146.5 ± 6.2 J/K/mol
726.4 K | 146.5 ± 6.2 J/K/mol
727.4 K | 146.6 ± 6.2 J/K/mol
728.4 K | 146.6 ± 6.2 J/K/mol
729.4 K | 146.6 ± 6.2 J/K/mol
730.4 K | 146.7 ± 6.2 J/K/mol
731.4 K | 146.7 ± 6.2 J/K/mol
732.4 K | 146.7 ± 6.2 J/K/mol
733.4 K | 146.7 ± 6.2 J/K/mol
734.4 K | 146.7 ± 6.2 J/K/mol
735.4 K | 146.7 ± 6.2 J/K/mol
736.4 K | 146.7 ± 6.2 J/K/mol
737.4 K | 146.7 ± 6.2 J/K/mol
738.4 K | 146.8 ± 6.2 J/K/mol
739.4 K | 146.9 ± 6.2 J/K/mol
740 K | 146.8 ± 6.2 J/K/mol
740.4 K | 147 ± 6.2 J/K/mol
741.4 K | 147 ± 6.2 J/K/mol
742.4 K | 147.1 ± 6.2 J/K/mol
743.4 K | 147.1 ± 6.2 J/K/mol
744.4 K | 147.1 ± 6.2 J/K/mol
745.4 K | 147.2 ± 6.2 J/K/mol
746.4 K | 147.2 ± 6.2 J/K/mol
747.4 K | 147.3 ± 6.2 J/K/mol
748.4 K | 147.3 ± 6.2 J/K/mol
749.4 K | 147.3 ± 6.2 J/K/mol
750.4 K | 147.3 ± 6.2 J/K/mol
751.4 K | 147.4 ± 6.3 J/K/mol
752.4 K | 147.4 ± 6.3 J/K/mol
753.4 K | 147.4 ± 6.3 J/K/mol
754.4 K | 147.5 ± 6.3 J/K/mol
755.4 K | 147.5 ± 6.3 J/K/mol
756.4 K | 147.6 ± 6.3 J/K/mol
757.4 K | 147.7 ± 6.3 J/K/mol
758.4 K | 147.7 ± 6.3 J/K/mol
759.4 K | 147.8 ± 6.3 J/K/mol
760 K | 147.4 ± 6.3 J/K/mol
760.4 K | 147.8 ± 6.3 J/K/mol
761.4 K | 147.8 ± 6.3 J/K/mol
762.4 K | 147.7 ± 6.3 J/K/mol
763.4 K | 147.7 ± 6.3 J/K/mol
764.4 K | 147.7 ± 6.3 J/K/mol
765.4 K | 147.8 ± 6.3 J/K/mol
766 K | 147.5 ± 6.3 J/K/mol
766.4 K | 147.9 ± 6.3 J/K/mol
